# Measured values taken from US20260273020A1, “OBESTATIN FOR USE AS ANTINEOPLASTIC AGENT IN THE TREATMENT OF PANCREATIC CANCER” (SERVIZO GALEGO DE SAÚDE, priority 2023, published 2026).
# Tested on: KPC FC1242 cells injected in the pancreas
# Assay: Orthotopic syngeneic mice model of pancreatic cancer: tumour growth
# Type: in vivo, C57BL/6J mice
# Experimental: FIG. 2. Schematic representation of an orthotopic syngeneic mice model established for the determination of obestatin action on tumoral development. In brief, KPC FC1242 (1×10E6) cells were injected in the pancreas of C57BL/6J mice. After nine days of tumoral growing, the mice were randomly assigned to the different groups (n=4/group) and treated with vehicle [NaCl, 0.9% (w/v)] or obestatin (500 nmol/Kg/72 h) via ALZET® osmotic micropumps for five days. Mice without tumoral cells treatment were utilized as healthy controls.
# FIG. 3. Effect of obestatin treatment on tumoral growing. The KPC FC1242 cells (1×10E6) were injected into the pancreas of C57BL/6J mice. After nine days of tumour post-injection, mice were treated with vehicle [NaCl, 0.9% (w/v)] or obestatin (500 nmol/Kg/72 h) via ALZET® osmotic micropumps for five days. Mice without tumoral cells treatment were utilized as healthy controls (n=4). Pancreases/tumours were collected, measured and weighted at day 14 after tumour implantation. Results are expressed as mean mean±SE (*, #, P<0.05). […]
# Day 1: Implantation of KPC FC1242 Cells into Mouse Pancreas • 1. […] The cells were kept cold, on ice, until ready to inject. • 2. […] The mouse was monitored until no longer mobile and breathing has slowed. […] Then, the mouse was ready for hair removal. • 3. […]
substance,measurement,setting,value
obestatin,reduction in the pancreatic tumour growing in weight,"mouse obestatin 500 nmol/Kg/72 h via osmotic micropumps for five days, from day 9 after tumour injection",35.8±6.9%
same,size and weight of tumours vs control or vehicle-treated groups,"obestatin-treated group, 500 nmol/Kg/72 h",significantly smaller
